Laboratory results reported in patent US20060051868A1, “Methods for increasing conifer somatic embryo initiation, capture, and multiplication” (priority 2001, published 2006).
Blank lines part the entries; values can stand above or below the compound they belong to.

How the values were obtained:
[1] = test system: Douglas-fir zygotic embryos; test: Initiation frequency of embryogenic cultures from Douglas-fir zygotic embryos; type: cell-based; details: 1.0 ppm in media #121 (Media 1323); 8-9 weeks, dark; control 16.4
Method: Four Douglas-fir cone collections with zygotic embryos at stages 2-4 were chosen. Cones were supplied by The Timber Co. from Cottage Grove, Oregon. Seeds were removed from their cones, soaked in running water for 10 min., and agitated in 10% liquinox containing 1.1 ml/l Tween 20 for an additional 10 min. The seeds were then rinsed with running tap water for 30 min. Seeds were transferred into a laminar flow hood where they were sterilized by agitating in 20% H2O2 for 10 min. Seeds were rinsed in sterilized water for 5 cycles of 5 to 10 min. each. The sterile seeds were placed into a sterile petri dish and dissected. The dissection was performed by splitting the ovule, gently removing the dominant embryo while leaving the suspensor intact, and placing both the embryo and the connected female gametophyte on the test medium. Test medium #1323 is the same as control media #121 but contains 1.0 ppm paclobutrazol. 2 ml of the appropriate medium was poured into multi-well plates sufficient for 10 replications per cone collection. The plates were incubated in the dark for 8-9 weeks at 24-26° C. […] Four Douglas-fir cone collections with zygotic embryos at stages 2-4 were chosen. […] The initiation frequency for the four cone collections with the addition of salts, paclobutrazol, and brassinolide enclosed in a nylon bag was determined to be 38.6%. […]

[2] = test system: Norway Spruce embryo and female gametophyte; test: Initiation frequency of embryogenic cultures from Norway Spruce seed embryos; type: cell-based; details: base media #56; MES 0.25 gm/l (Media 1362); vitamins 0.05 ppm biotin + 0.5 ppm folic acid (Media 1363); nine weeks, light; control 38.5
Method: Mature Norway Spruce seeds were soaked in running water for 1 hour at room temperature and then stored in water for 24 hours in a refrigerator at 4° C. The seeds were sterilized by agitation in 10% liquinox containing 1.1 ml/l Tween 20 for 10 minutes followed by a 30 minute rinse with running tap water. In a sterile laminar flow hood, the rinsed seeds were agitated in 20% H2O2 for 10 min., then again rinsed with sterile deionized water for 5 cycles of 5 to 10 min. each. The sterile Norway Spruce seeds were placed into petri dishes onto sterile moistened filter paper for dissection. Seeds were opened and the female gametophyte removed. The female gametophyte was placed on its side and further opened. The embryo was removed from the gametophyte and placed onto a test medium next to the female gametophyte. Petri dishes containing the embryo and gametophyte were covered and wrapped with Parafilm® and incubated in light at 23-24° C. for nine weeks. The control-medium used for Norway Spruce was media #56. Refer to Table 21 for a detailed listing of media components. The three test media contained combinations of buffering reagent MES and/or vitamins. […] Initiation frequency was determined to be 38.5% for the control media, while the frequency on the control medium with the addition of 0.33 ppm paclobutrazol averaged roughly 48.5%. […]

[3] = Media pH during Loblolly pine embryogenic culture growth; type: physicochemical
Method: The pH of media containing four different concentrations of MES was compared to that of a non-buffered control media during eight weeks of embryogenic culture growth. Maintenance cultures were established on treatment media using single isolated somatic embryos. Maintenance cultures were prepared and cultured essentially as described in Example 5.
The control media was #1043. (See Table 21). The treatment media consisted of #1043 supplemented with 250, 500, 1000 and 1500 mg/l MES. Media pH was adjusted to 5.7 within all treatments prior to autoclaving, pouring and solidification. Immediately after pouring the media, and thereafter at two week intervals, media pH was measured up to the eighth week of culture growth. At each sampling time, four cultures from each media-genotype treatment were destructively sampled to measure the pH of the media directly underlying the growing embryogenic tissue.

Compound: CC(C)(C)[C@@H](O)[C@@H](Cc1ccc(Cl)cc1)n1cncn1 (racemic) [paclobutrazol]
Initiation Frequency (%) [1]: 24.4%

Media pH ([3]; 250 mg/l in media #1043, 0 weeks): 5.55 | Media pH ([3]; 250 mg/l in media #1043, 2 weeks): 5.43 | Media pH ([3]; 250 mg/l in media #1043, 4 weeks): 4.69 | Media pH ([3]; 250 mg/l in media #1043, 6 weeks): 4.68 | Media pH ([3]; 250 mg/l in media #1043, 8 weeks): 4.72 | Media pH ([3]; 500 mg/l in media #1043, 0 weeks): 5.63 | Media pH ([3]; 500 mg/l in media #1043, 2 weeks): 5.50 | Media pH ([3]; 500 mg/l in media #1043, 4 weeks): 4.78 | Media pH ([3]; 500 mg/l in media #1043, 6 weeks): 4.77 | Media pH ([3]; 500 mg/l in media #1043, 8 weeks): 4.54 | Media pH ([3]; 1000 mg/l in media #1043, 0 weeks): 5.67 | Media pH ([3]; 1000 mg/l in media #1043, 2 weeks): 5.57 | Media pH ([3]; 1000 mg/l in media #1043, 4 weeks): 5.38 | Media pH ([3]; 1000 mg/l in media #1043, 6 weeks): 4.70 | Media pH ([3]; 1000 mg/l in media #1043, 8 weeks): 4.89 | Media pH ([3]; 1500 mg/l in media #1043, 0 weeks): 5.67 | Media pH ([3]; 1500 mg/l in media #1043, 2 weeks): 5.59 | Media pH ([3]; 1500 mg/l in media #1043, 4 weeks): 5.59 | Media pH ([3]; 1500 mg/l in media #1043, 6 weeks): 4.91 | Media pH ([3]; 1500 mg/l in media #1043, 8 weeks): 5.18
Compound: O=S(=O)(O)CCN1CCOCC1 [MES, 2-(N-morpholino)-ethanesulfonic acid]
Initiation Frequency (%) [2]: 40.2%
